Data as given in article PMC10982999, “Structure-Guided Design and Optimization of Covalent VHL-Targeted Sulfonyl Fluoride PROTACs” (Journal of Medicinal Chemistry, 2024).

Target: T1, VHL in HEK293T cells (Homo sapiens, UniProt P40337)
T1 construct: endogenous in cells; host or cells: HEK293T
Assay: Gel-based competition pull-down assay from live cells
Format: cell-based
Conditions: HEK293T cells pretreated 2 h at 37 °C; lysate treated with VHL-SF2-Biotin 50 μM 2 h
Method: Figure 2 (A) Structure of VHL-SF2. […] (E) Competition pull-down assay from live cells between VHL-SF2-Biotin and VHL-SF2. HEK293T cells were pretreated with DMSO or varying concentrations of VHL-SF2 for 2 h at 37 °C. The cells were lysed and treated with DMSO or VHL-SF2-Biotin (50 μM) for 2 h at room temperature. A pull-down with streptavidin beads was conducted, after which the protein was resolved on SDS/PAGE. VHL and loading control GAPDH levels were visualized by Western blotting.
Initially, we subjected VHL-SF2-Biotin to the streptavidin shift assay and observed a greater extent of VHL modification (44%) than for VHL-SF1-Biotin under the same conditions (Figure S2). […] Intact LC–MS analysis confirmed single labeling of VHL by VHL-SF2, with 65% conversion at 24 h (Figure S5). Although we attempted several site ID identification experiments by digesting the labeled recombinant VHL, the Ser110-containing peptide was not detected in the samples treated with VHL-SF2. This observation is consistent with a change in peptide properties that is incompatible with mass spectrometry detection compared to untreated samples (Table S2). […]
VCB (11.1 mg/ mL) was diluted with PBS pH 7.4 (2 µg/ mL). […] 10 µL of each sample was loaded onto the gel and the bands were quantified […]

## Cc1cc([C@H](C(=O)N2C[C@H](S(=O)(=O)F)C[C@H]2C(=O)N[C@@H](CC(=O)OC(C)(C)C)c2ccc(-c3scnc3C)cc2)C(C)C)on1 [VHL-SF2, tert-Butyl (S)-3-((2S,4R)-4-(Fluorosulfonyl)-1-((R)-3-methyl-2-(3-methylisoxazol-5-yl)butanoyl)pyrr-olidine-2-carboxamido)-3-(4-(4-methylthiazol-5-yl)phenyl)propanoate]
  pull-down of VHL by VHL-SF2-Biotin after compound pretreatment: dose-dependently competed
